Values after ≈ are worked out from the molar mass of the structure shown.
Columns and labels:
[1] = Lipophilicity, logD of compound; assay type: physicochemical; details: octanol/water
[2] = Inhibition of Escherichia coli topoisomerase 4
[3] = tested on: Pseudomonas aeruginosa; experiment: Antibacterial activity against Pseudomonas aeruginosa; assay type: functional
[4] = Dissociation constant, pKa of the compound; assay type: physicochemical
[5] = tested on: Staphylococcus aureus; experiment: Antibacterial activity against Staphylococcus aureus; assay type: functional
[6] = tested on: Escherichia coli; experiment: Antibacterial activity against Escherichia coli W3110; assay type: functional
[7] = tested on: Streptococcus pneumoniae; experiment: Antibacterial activity against Streptococcus pneumoniae; assay type: functional
[8] = target: T1, Glutamate receptor ionotropic AMPA (Homo sapiens, UniProt P42261+P42262+P42263+P48058); experiment: Binding affinity to AMPA receptor (unknown origin); assay type: protein-complex assay
[9] = target: Glutamate receptor ionotropic, kainate 2 (Homo sapiens, UniProt Q13002); experiment: Binding affinity to GluK2 receptor (unknown origin)
Glutamate receptor ionotropic, kainate 2, sequence (Q13002 whole entry): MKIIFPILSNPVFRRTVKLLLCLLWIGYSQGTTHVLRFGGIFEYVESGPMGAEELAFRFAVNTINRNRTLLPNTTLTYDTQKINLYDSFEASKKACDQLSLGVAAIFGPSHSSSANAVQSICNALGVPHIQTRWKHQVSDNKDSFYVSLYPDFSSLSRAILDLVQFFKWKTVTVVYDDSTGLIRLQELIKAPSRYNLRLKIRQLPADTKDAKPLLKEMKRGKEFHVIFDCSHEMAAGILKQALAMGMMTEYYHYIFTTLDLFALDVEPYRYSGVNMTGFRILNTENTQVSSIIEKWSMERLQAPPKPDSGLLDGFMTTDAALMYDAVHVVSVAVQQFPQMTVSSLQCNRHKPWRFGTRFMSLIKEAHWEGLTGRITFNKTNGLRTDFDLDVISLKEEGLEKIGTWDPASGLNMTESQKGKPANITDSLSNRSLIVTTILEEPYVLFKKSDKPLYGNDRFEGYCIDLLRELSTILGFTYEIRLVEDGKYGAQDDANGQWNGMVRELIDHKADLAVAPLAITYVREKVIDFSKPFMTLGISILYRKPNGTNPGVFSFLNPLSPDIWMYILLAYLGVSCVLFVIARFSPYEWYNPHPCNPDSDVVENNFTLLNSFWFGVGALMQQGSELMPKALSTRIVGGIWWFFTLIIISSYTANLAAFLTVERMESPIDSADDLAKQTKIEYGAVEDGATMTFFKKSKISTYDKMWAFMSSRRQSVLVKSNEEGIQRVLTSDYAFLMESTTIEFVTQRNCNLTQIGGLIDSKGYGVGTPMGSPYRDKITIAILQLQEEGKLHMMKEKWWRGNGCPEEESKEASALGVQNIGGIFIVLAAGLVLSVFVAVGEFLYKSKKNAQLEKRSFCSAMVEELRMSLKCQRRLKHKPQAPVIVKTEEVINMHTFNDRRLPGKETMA

[10] = target: Glutamate receptor ionotropic, kainate 1 (Homo sapiens, UniProt P39086); experiment: Binding affinity to GluK1 receptor (unknown origin)
Glutamate receptor ionotropic, kainate 1, sequence (P39086 whole entry): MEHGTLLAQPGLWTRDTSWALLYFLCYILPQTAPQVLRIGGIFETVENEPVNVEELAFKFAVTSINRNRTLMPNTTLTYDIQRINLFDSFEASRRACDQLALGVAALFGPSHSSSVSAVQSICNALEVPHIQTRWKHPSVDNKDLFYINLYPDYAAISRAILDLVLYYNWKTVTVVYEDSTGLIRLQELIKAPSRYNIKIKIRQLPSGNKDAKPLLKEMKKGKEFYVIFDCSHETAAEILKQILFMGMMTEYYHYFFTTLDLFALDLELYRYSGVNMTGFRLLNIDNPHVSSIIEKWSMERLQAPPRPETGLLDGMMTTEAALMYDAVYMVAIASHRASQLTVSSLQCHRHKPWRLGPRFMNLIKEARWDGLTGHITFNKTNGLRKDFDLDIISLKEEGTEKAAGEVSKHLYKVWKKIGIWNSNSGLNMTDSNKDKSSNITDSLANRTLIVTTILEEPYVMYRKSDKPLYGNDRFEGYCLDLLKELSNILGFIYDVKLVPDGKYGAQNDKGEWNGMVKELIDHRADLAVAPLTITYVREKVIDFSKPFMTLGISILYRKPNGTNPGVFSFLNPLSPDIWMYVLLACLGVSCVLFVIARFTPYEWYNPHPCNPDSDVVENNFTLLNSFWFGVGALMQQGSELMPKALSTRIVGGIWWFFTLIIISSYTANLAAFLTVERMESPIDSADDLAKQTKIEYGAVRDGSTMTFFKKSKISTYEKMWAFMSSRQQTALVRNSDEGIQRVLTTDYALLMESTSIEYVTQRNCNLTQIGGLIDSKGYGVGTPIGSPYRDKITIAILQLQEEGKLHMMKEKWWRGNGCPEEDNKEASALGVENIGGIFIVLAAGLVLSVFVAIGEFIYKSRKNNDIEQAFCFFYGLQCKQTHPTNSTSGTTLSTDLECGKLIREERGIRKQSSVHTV

[11] = target: Glutamate receptor 2 (Homo sapiens, UniProt P42262); experiment: Binding affinity to GluA2 receptor (unknown origin)
Glutamate receptor 2, sequence (P42262 whole entry): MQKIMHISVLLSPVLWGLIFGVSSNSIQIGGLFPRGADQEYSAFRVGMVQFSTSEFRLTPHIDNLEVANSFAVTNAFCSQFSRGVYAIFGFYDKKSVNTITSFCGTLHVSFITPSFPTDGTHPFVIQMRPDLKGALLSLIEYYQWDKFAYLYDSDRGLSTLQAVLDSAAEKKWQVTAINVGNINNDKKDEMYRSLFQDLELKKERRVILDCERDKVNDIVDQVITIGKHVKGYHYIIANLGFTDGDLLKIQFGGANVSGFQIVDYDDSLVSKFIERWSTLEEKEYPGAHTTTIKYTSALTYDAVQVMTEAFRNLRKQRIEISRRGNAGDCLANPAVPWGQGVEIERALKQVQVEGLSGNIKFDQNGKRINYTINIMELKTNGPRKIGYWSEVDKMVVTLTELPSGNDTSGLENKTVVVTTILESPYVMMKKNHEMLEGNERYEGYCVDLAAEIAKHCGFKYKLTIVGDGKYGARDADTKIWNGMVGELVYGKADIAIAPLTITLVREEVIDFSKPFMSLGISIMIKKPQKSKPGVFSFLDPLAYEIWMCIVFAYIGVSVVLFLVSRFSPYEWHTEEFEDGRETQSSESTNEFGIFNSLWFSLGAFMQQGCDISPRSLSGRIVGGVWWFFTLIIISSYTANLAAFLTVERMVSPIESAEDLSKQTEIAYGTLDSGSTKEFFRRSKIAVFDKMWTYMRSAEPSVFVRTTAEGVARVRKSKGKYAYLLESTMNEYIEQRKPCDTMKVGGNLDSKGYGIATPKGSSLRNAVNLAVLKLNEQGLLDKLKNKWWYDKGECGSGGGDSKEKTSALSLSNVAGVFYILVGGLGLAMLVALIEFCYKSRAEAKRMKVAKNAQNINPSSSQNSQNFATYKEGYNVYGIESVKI

[12] = target: T2, Glutamate receptor ionotropic, kainate 5 (Homo sapiens, UniProt Q16478); experiment: Binding affinity to GluK5 receptor (unknown origin)
T2 sequence (Q16478 whole entry): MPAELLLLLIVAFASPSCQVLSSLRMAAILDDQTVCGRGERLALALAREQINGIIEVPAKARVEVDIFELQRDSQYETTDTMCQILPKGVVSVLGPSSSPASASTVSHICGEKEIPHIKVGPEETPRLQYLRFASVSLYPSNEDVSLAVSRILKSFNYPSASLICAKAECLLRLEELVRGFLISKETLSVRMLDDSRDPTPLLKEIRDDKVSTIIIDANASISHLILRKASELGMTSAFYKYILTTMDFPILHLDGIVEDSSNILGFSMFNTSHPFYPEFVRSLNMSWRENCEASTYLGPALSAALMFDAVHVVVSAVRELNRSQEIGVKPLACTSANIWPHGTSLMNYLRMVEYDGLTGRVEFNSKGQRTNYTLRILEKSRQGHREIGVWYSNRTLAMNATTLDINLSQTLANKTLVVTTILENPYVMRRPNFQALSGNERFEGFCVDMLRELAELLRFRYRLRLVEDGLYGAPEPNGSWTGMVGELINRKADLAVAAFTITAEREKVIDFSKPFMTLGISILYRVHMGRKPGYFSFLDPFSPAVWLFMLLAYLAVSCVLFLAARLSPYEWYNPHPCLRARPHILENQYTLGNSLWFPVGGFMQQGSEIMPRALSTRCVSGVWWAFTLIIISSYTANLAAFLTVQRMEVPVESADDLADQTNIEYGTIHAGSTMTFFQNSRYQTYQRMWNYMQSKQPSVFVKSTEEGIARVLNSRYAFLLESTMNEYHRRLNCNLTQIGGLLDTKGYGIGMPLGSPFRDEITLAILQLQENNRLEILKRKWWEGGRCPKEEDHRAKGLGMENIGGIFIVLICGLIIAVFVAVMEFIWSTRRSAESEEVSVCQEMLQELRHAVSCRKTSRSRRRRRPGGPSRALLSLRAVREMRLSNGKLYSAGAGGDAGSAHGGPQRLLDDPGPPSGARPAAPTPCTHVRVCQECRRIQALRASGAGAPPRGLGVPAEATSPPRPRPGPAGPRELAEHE

[13] = target: Bromodomain-containing protein 4 (Homo sapiens, UniProt O60885); experiment: Inhibition of BRD4 (unknown origin) using histone-H4 as substrate incubated for 15 mins and measured after 1 hr by AlphaScreen assay
[14] = Antiproliferative activity against human 3AO cells; assay type: functional, cell-based
[15] = tested on: HeLa; experiment: Antiproliferative activity against human HeLa cells; assay type: functional, cell-based
[16] = tested on: PC-3; experiment: Antiproliferative activity against human PC-3 cells; assay type: functional, cell-based
[17] = tested on: MCF7; experiment: Antiproliferative activity against human MCF7 cells; assay type: functional, cell-based
[18] = tested on: K562; experiment: Antiproliferative activity against human K562 cells; assay type: functional, cell-based
[19] = tested on: BEAS-2B; experiment: Antiproliferative activity against human BEAS-2B cells; assay type: functional, cell-based
[20] = target: T3, Vascular endothelial growth factor receptor 2 (Homo sapiens, UniProt P35968); experiment: Inhibition of VEGFR2 (unknown origin) at 1 uM relative to control
[21] = target: T3, Vascular endothelial growth factor receptor 2
[22] = tested on: HepG2; experiment: Antiproliferative activity against human HepG2 cells; assay type: functional, cell-based
[23] = Inhibition of KA-induced cytotoxicity in human hippocampal cell culture; assay type: toxicity, cell-based; details: Hippocampal neurone
[24] = target: T1, Glutamate receptor ionotropic AMPA; experiment: Displacement of [3H]AMPA from AMPA receptor (unknown origin); assay type: protein-complex assay
[25] = tested on: HCT-116; experiment: Antiproliferative activity against human HCT-116 cells; assay type: functional, cell-based
[26] = target: Epidermal growth factor receptor (Homo sapiens, UniProt P00533); experiment: Inhibition of wild-type EGFR (unknown origin)
[27] = tested on: WI-38; experiment: Antiproliferative activity against human WI-38 cells; assay type: functional, cell-based
[28] = target: Epidermal growth factor receptor (Homo sapiens, UniProt P00533, L858R); experiment: Inhibition of EGFR L858R mutant (unknown origin)
Epidermal growth factor receptor (Homo sapiens, UniProt P00533, L858R), sequence (P00533 25-1210 L858R limits assumed): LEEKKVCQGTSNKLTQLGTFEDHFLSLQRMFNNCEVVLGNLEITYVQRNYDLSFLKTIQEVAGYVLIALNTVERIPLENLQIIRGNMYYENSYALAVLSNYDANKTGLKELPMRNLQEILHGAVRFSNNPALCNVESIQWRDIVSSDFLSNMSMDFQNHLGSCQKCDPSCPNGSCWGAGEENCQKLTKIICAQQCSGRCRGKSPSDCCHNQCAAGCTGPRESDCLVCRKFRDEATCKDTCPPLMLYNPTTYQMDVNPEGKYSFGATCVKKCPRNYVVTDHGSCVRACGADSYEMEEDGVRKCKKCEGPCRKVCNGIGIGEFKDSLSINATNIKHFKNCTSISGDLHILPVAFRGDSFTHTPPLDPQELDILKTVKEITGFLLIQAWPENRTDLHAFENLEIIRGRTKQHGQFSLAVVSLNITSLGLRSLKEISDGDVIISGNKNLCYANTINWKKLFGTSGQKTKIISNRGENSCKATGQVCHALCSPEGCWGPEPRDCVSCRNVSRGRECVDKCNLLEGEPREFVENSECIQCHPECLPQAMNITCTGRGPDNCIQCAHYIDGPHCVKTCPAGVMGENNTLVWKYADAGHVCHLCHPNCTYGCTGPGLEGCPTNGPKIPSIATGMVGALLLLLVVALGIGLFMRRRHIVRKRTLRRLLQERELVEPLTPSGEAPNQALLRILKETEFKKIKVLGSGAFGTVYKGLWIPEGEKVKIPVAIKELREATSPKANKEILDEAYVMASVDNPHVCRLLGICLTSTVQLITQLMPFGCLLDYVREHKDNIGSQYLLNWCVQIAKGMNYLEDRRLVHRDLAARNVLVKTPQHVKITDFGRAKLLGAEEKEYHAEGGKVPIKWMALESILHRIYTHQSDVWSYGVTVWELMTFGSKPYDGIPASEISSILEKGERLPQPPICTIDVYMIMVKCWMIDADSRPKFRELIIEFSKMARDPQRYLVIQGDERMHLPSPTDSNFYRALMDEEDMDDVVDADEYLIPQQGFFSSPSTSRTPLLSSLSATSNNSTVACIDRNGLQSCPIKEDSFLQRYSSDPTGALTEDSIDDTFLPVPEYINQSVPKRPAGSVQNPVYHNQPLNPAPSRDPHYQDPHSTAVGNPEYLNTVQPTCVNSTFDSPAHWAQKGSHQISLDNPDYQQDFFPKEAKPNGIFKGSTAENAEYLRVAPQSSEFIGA

[29] = Cytotoxicity against mock-infected human MT4 cells; assay type: toxicity, cell-based
[30] = target: Voltage-gated inwardly rectifying potassium channel KCNH2 (Homo sapiens, UniProt Q12809); experiment: Inhibition of hERG; assay type: toxicity
Voltage-gated inwardly rectifying potassium channel KCNH2, sequence (Q12809 whole entry): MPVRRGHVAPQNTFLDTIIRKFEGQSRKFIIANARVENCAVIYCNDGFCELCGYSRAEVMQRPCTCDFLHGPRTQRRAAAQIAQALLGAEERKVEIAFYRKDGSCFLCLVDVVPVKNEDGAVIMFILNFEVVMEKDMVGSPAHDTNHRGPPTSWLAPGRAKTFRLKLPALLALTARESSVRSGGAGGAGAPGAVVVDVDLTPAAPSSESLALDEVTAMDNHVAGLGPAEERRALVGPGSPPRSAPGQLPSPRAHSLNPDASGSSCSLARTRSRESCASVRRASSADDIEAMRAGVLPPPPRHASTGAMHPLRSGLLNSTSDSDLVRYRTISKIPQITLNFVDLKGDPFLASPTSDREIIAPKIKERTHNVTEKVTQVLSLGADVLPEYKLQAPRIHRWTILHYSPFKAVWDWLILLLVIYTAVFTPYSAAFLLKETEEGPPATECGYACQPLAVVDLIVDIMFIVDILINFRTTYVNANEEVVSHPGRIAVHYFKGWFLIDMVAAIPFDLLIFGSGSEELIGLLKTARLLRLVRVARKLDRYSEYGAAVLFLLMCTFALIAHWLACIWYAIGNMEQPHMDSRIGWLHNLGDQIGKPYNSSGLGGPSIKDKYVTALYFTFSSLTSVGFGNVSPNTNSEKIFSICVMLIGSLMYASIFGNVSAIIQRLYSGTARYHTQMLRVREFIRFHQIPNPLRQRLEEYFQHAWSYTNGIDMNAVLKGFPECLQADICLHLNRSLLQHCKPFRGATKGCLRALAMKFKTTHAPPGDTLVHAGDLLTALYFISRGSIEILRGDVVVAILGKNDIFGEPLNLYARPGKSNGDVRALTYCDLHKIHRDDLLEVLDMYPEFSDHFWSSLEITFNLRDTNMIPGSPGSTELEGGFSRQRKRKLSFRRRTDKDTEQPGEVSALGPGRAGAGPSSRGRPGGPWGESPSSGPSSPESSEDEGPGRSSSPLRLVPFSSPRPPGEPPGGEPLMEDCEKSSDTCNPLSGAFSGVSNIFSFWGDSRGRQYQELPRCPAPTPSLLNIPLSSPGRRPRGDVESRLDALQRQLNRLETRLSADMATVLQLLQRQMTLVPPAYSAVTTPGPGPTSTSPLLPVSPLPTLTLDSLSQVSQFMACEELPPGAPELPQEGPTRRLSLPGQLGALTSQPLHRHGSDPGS

[31] = tested on: Escherichia coli; experiment: Antibacterial activity against Escherichia coli; assay type: functional
[32] = tested on: Klebsiella pneumoniae; experiment: Antibacterial activity against Klebsiella pneumoniae; assay type: functional
[33] = target: T1, Glutamate receptor ionotropic AMPA; experiment: Displacement of [3H]kainic acid from AMPA receptor (unknown origin); assay type: protein-complex assay
[34] = target: T1, Glutamate receptor ionotropic AMPA; experiment: Displacement of [3H]CNQX from AMPA receptor (unknown origin); assay type: protein-complex assay
[35] = tested on: Escherichia coli; experiment: Antibacterial activity against Escherichia coli assessed as diameter zone of inhibition; assay type: functional
[36] = tested on: Salmonella typhimurium; experiment: Antibacterial activity against Salmonella typhimurium assessed as diameter zone of inhibition; assay type: functional, Salmonella enterica subsp. enterica serovar Typhimurium
[37] = target: Glutamate [NMDA] receptor; experiment: Displacement of [3H]MK-801 from NMDA receptor (unknown origin); assay type: protein-complex assay, Homo sapiens
[38] = target: T1, Glutamate receptor ionotropic AMPA; experiment: Antagonist activity at AMPA receptor (unknown origin) assessed as AMPA-induced depolarizations; assay type: protein-complex assay
[39] = Displacement of [3H]glycine from AMPA receptor (unknown origin); assay type: protein-complex assay, Homo sapiens
[40] = target: Glutamate [NMDA] receptor; experiment: Antagonist activity at NMDA receptor (unknown origin) assessed as NMDA-induced depolarizations; assay type: protein-complex assay, Homo sapiens
[41] = Antioxidant activity assessed as NO radical scavenging activity; assay type: functional
[42] = Antioxidant activity assessed as DPPH radical scavenging activity; assay type: functional
[43] = Antioxidant activity assessed as H2O2 radical scavenging activity; assay type: functional

COc1ccc2ncc(=O)n(CCN3CCC(NCc4ccc5c(n4)NC(=O)CO5)CC3)c2c1
logD [1]: 0.6
IC50 [2]: 2.2 nM
MIC [3]: 1 µg/mL (≈ 2.15 µM)
pKa [4]: 5.56
MIC [5]: 0.03 µg/mL (≈ 0.0646 µM)
MIC [6]: 0.13 µg/mL (≈ 0.28 µM)
MIC [7]: 0.08 µg/mL (≈ 0.172 µM)

O=C(Nn1c(=O)c(=O)[nH]c2cc(C(F)(F)F)c(F)cc21)c1ccccc1O
Ki [8]: 960 nM
Ki [9]: 0.908 µM
Ki [10]: 1120 nM
Ki [11]: 4.12 µM
Ki [12]: 26.4 µM

Cc1noc(C)c1-c1ccc2c(c1)C(Cc1ccccc1)NC(=O)N2C (stereo not drawn)
IC50 [13]: 32 nM

O=C(Cn1c(=O)c(/C=C/c2ccncc2)nc2ccccc21)Nc1ccc(Cl)c(Cl)c1
IC50 [14]: > 100 µM
IC50 [15]: > 100 µM
IC50 [16]: > 100 µM
IC50 [17]: 47.6 µM
IC50 [18]: > 100 µM
IC50 [19]: > 100 µM
inhibition [20]: 56%

Cc1ccc(O)c(NC(=O)c2ccc(NC(=O)Cn3c(=O)c4nncn4c4ccccc43)cc2)c1
IC50 [17]: 8.1 µM
IC50 [21]: 3.9 nM
IC50 [22]: 7.8 µM

N#Cc1ccc2ccc(=O)n(CCN3CC[C@H](NCc4cc5c(cn4)OCCO5)[C@H](F)C3)c2c1
IC50 [2]: 48 nM
MIC [3]: > 8 µg/mL
pKa [4]: 4.47
MIC [5]: 0.06 µg/mL (≈ 0.129 µM)
MIC [6]: 4 µg/mL (≈ 8.63 µM)
MIC [7]: 0.13 µg/mL (≈ 0.28 µM)

CCc1cnc2c(=O)[nH]c3cc([N+](=O)[O-])c(-n4ccnc4)nc3n12
IC50 [23]: 300 nM
Ki [24]: 20 nM

COC(=O)CCc1nc2ccc(Br)cc2[nH]c1=O
IC50 [25]: 13.8 µM
IC50 [17]: 17.9 µM
IC50 [26]: 957 nM
IC50 [22]: 15.6 µM
IC50 [27]: 142 µM
IC50 [28]: 75.4 nM

COc1ccc2[nH]c(=O)c(CBr)nc2c1Cl
CC50 [29]: 21 µM

N[C@H](Cn1c(=O)cnc2ccc(F)cc21)[C@H]1CC[C@H](NCc2ncc3c(n2)NC(=O)CO3)CC1
logD [1]: -0.32
IC50 [30]: > 333 µM
IC50 [2]: 3 nM
MIC [31]: < 0.06 µg/mL
MIC90 [31]: 1 µg/mL (≈ 2.14 µM)
MIC90 [32]: 16 µg/mL (≈ 34.2 µM)
MIC [3]: 0.5 µg/mL (≈ 1.07 µM)
MIC90 [3]: 4 µg/mL (≈ 8.56 µM)
pKa [4]: 7.28
MIC [5]: 1 µg/mL (≈ 2.14 µM)

Cc1cc2[nH]c(=O)c(=O)[nH]c2cc1C=O
IC50 [33]: 54 µM
IC50 [24]: 11 µM
IC50 [34]: 4 µM

COc1cnc2ccc(=O)n(C[C@@H](N)[C@H]3CC[C@H](NCc4ccc5c(n4)NC(=O)CO5)CC3)c2c1
logD [1]: -0.86
IC50 [30]: > 333 µM
IC50 [2]: 2 nM
MIC [31]: 0.5 µg/mL (≈ 1.04 µM)
MIC90 [31]: 0.5 µg/mL (≈ 1.04 µM)
MIC [32]: 8 µg/mL (≈ 16.7 µM)
MIC [3]: 1 µg/mL (≈ 2.09 µM)
MIC90 [3]: 4 µg/mL (≈ 8.36 µM)
pKa [4]: 7.66
MIC [5]: 8 µg/mL (≈ 16.7 µM)

O=C1CN(C(=O)CNc2cccc(Cl)c2)c2ccccc2N1
diameter of the inhibition zone (DIZ) [35]: 9 mm
diameter of the inhibition zone (DIZ) [36]: 9 mm

COC(=O)CCc1nc2ccc(Cl)cc2[nH]c1=O
IC50 [25]: 31.6 µM
IC50 [17]: 23.3 µM
IC50 [26]: 1340 nM
IC50 [22]: 46.2 µM
IC50 [27]: 242 µM
IC50 [28]: 82.8 nM

O=C(Nn1c(=O)c(=O)[nH]c2cc(C#CCO)ccc21)c1ccccc1
Ki [9]: 9.78 µM
Ki [11]: 37.4 µM
Ki [12]: 100 µM

O=c1[nH]c2cc(C(F)(F)F)c(-n3ccnc3)nc2n2ccnc12
IC50 [23]: 320 nM
Ki [24]: 66 nM

O=C(O)c1nc2c(O)nc3cc(Cl)c(-n4cccc4)cc3n2n1
IC50 [33]: 36 µM
IC50 [37]: 11.7 µM
IC50 [38]: 3 µM
Ki [39]: 860 nM
IC50 [40]: 52 µM
Ki [24]: 860 nM

Cc1nc2ccccc2n(CC(=O)N/N=C/c2ccc(OCCn3cc(CN4CCCCC4)nn3)cc2)c1=O
IC50 [41]: 52.08 µg/mL (≈ 98.5 µM)
IC50 [42]: 28.24 µg/mL (≈ 53.4 µM)
IC50 [43]: 54.34 µg/mL (≈ 103 µM)
